The values that follow come from patent publication US20230310428A1, “EGFR INHIBITOR AND PREPARATION METHOD AND USE THEREOF” (HONGYUN BIOTECH CO., LTD., priority 2020, published 2023).

Molecules are shown by their SMILES. A value given as a limit tells only on which side of the number the result lay.

Test in all cases: Growth inhibitory activity of compounds on BaF3 cell lines stably transfected with kinase (MTS, 48 h)
Common to all, as to format: cell-based

For experiment [1], the target named is T1, various mutants of kinase EGFR (BaF3 cell lines stably transfected with kinase) (Homo sapiens, UniProt P00533, L858R).
T1 construct: expressed in transfected cells; host or cells: BaF3
The note with it: BaF3 cells stably transfected with EGFR L858R, read-out: IC50, growth inhibition, L858R. The gist of the method:
(§1)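 BaF3 cells stably transfected with EGFR mutants were exposed for 48 h at 37°C to 8 compound concentrations (top 10 µM, 1/3 dilutions, 0.1% DMSO). Growth was read by MTS at 490 nm after 1-4 h, in duplicate; IC50 was derived from inhibition rates versus DMSO control.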

Experiment [2] deals with T2, various mutants of kinase EGFR (BaF3 cell lines stably transfected with kinase) (Homo sapiens, UniProt P00533, C797S/L858R/T790M).
T2 construct: expressed in transfected cells; host or cells: BaF3
The note with it: BaF3 cells stably transfected with EGFR L858R/T790M/C797S, read-out: IC50, growth inhibition, L858R/T790M/C797S. The gist of the method: as §1

Experiment [3] addresses T3, various mutants of kinase EGFR (BaF3 cell lines stably transfected with kinase) (Homo sapiens, UniProt P00533).
T3 construct: other: BaF3 cells stably transfected with EGFR Δ19Del; MTS, 48 h; other: BaF3 cell line stably transfected with EGFR Δ19Del
The note with it: BaF3 cells stably transfected with EGFR Δ19Del, read-out: IC50, growth inhibition, Δ19Del. The gist of the method:
as §1

For experiment [4], the target named is T4, various mutants of kinase EGFR (BaF3 cell lines stably transfected with kinase) (Homo sapiens, UniProt P00533, T790M, form not given).
T4 construct: other: BaF3 cells stably transfected with EGFR Δ19Del/T790M; MTS, 48 h; other: BaF3 cell line stably transfected with EGFR Δ19Del/T790M; MTS, 48
The note with it: BaF3 cells stably transfected with EGFR Δ19Del/T790M, read-out: IC50, growth inhibition, Δ19Del/T790M. The gist of the method: as §1

Experiment [5] deals with T5, various mutants of kinase EGFR (BaF3 cell lines stably transfected with kinase) (Homo sapiens, UniProt P00533, L858R/T790M).
T5 construct: expressed in transfected cells; host or cells: BaF3
The note with it: BaF3 cells stably transfected with EGFR L858R/T790M, read-out: IC50, growth inhibition, L858R/T790M. The gist of the method: as §1

Experiment [6] deals with T6, various mutants of kinase EGFR (BaF3 cell lines stably transfected with kinase) (Homo sapiens, UniProt P00533, T790M/C797S, form not given).
T6 construct: other: BaF3 cells stably transfected with EGFR Δ19Del/T790M/C797S; MTS, 48; other: BaF3 cell line stably transfected with EGFR Δ19Del/T790M/C7
The note with it: BaF3 cells stably transfected with EGFR Δ19Del/T790M/C797S, read-out: IC50, growth inhibition, Δ19Del/T790M/C797S. The gist of the method:
as §1

T1 sequence (P00533 25-1210 L858R): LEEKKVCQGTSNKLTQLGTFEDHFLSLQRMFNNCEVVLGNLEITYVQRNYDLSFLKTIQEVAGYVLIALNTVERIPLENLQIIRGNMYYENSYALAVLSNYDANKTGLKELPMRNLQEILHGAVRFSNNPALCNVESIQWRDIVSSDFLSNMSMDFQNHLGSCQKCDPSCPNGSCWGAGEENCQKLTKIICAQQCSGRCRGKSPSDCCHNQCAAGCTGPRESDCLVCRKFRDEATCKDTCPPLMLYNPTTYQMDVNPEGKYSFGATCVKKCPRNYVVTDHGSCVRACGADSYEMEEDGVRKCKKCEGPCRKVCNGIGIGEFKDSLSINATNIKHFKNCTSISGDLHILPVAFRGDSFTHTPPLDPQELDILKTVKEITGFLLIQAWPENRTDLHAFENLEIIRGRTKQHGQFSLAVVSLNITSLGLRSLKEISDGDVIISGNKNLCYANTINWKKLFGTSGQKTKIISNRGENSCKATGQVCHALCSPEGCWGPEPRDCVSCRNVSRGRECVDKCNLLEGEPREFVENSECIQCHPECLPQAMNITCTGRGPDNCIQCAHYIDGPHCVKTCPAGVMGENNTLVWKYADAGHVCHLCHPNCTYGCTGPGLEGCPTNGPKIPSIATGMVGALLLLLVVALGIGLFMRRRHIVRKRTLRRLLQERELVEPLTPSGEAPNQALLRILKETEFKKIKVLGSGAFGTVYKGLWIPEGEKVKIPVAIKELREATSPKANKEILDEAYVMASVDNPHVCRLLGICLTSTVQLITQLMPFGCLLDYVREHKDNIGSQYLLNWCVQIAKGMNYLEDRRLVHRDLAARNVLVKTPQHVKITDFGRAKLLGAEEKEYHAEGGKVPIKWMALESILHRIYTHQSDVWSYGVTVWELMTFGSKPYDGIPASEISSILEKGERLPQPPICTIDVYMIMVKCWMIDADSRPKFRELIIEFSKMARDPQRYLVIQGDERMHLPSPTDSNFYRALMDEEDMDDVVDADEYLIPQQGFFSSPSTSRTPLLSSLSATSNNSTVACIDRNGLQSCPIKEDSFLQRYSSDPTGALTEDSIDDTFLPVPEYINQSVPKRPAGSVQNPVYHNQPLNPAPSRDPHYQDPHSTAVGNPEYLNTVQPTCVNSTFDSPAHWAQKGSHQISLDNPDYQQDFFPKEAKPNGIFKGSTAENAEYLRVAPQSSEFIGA
T2 sequence (P00533 25-1210 T790M/C797S/L858R): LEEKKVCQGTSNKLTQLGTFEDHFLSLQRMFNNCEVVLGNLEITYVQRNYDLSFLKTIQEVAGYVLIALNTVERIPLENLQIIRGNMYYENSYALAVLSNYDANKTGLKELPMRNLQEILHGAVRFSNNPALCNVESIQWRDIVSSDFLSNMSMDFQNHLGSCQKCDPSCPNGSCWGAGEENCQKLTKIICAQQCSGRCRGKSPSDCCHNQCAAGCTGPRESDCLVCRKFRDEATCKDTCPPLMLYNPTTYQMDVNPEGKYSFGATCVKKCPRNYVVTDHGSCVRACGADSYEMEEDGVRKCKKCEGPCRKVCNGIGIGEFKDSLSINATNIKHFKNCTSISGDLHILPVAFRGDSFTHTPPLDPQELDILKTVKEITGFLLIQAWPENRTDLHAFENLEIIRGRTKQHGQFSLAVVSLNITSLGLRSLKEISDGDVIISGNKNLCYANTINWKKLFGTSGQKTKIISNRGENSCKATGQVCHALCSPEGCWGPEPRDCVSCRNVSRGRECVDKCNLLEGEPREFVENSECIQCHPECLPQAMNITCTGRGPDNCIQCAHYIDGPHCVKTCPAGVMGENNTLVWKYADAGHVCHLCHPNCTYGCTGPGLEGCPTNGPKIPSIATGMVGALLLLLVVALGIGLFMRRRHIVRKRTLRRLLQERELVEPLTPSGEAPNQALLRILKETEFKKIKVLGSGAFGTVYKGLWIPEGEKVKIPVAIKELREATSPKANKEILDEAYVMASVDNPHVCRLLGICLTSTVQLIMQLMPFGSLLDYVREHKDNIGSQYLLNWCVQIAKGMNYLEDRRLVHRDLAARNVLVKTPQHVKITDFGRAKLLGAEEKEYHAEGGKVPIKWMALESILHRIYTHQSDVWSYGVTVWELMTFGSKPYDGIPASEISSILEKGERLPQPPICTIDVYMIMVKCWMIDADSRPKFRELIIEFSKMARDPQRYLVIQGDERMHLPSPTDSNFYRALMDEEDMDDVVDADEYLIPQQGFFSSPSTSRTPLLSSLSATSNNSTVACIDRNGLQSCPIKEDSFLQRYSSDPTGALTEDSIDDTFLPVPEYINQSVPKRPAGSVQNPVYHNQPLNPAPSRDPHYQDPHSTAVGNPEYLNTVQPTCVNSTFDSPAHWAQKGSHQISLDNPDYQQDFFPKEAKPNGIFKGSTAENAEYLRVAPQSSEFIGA
T5 sequence (P00533 25-1210 T790M/L858R): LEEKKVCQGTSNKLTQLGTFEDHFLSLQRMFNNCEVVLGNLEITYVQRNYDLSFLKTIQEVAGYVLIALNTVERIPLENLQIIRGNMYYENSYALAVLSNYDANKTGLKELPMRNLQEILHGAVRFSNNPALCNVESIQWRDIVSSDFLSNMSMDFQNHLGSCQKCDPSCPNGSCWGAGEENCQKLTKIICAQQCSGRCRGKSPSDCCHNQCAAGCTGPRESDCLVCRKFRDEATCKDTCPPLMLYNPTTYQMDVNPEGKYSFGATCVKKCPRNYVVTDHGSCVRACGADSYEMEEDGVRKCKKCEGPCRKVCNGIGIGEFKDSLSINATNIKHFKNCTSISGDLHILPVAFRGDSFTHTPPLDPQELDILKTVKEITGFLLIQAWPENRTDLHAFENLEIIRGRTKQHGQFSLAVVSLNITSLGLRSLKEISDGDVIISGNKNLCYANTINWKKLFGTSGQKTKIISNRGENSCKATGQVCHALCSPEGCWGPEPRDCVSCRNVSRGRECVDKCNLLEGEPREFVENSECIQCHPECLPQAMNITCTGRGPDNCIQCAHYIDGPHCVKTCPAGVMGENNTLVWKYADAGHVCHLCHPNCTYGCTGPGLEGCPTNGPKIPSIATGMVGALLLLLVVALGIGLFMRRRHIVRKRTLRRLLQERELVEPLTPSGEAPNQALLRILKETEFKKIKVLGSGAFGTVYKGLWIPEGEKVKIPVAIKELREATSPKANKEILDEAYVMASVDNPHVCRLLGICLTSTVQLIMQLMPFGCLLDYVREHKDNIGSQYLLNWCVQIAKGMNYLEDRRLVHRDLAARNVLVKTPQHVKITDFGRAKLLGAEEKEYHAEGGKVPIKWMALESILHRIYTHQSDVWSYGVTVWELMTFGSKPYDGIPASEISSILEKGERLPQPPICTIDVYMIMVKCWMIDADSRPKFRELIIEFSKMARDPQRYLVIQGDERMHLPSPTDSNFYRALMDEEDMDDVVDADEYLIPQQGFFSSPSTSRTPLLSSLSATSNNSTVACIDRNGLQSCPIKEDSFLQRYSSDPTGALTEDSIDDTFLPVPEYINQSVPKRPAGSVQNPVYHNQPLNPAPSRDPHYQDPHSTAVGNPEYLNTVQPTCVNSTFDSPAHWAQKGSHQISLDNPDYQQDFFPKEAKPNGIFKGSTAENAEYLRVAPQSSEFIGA
T4 sequence (P00533 with tags, fused parts or gaps DEL746-750/T790M, form open): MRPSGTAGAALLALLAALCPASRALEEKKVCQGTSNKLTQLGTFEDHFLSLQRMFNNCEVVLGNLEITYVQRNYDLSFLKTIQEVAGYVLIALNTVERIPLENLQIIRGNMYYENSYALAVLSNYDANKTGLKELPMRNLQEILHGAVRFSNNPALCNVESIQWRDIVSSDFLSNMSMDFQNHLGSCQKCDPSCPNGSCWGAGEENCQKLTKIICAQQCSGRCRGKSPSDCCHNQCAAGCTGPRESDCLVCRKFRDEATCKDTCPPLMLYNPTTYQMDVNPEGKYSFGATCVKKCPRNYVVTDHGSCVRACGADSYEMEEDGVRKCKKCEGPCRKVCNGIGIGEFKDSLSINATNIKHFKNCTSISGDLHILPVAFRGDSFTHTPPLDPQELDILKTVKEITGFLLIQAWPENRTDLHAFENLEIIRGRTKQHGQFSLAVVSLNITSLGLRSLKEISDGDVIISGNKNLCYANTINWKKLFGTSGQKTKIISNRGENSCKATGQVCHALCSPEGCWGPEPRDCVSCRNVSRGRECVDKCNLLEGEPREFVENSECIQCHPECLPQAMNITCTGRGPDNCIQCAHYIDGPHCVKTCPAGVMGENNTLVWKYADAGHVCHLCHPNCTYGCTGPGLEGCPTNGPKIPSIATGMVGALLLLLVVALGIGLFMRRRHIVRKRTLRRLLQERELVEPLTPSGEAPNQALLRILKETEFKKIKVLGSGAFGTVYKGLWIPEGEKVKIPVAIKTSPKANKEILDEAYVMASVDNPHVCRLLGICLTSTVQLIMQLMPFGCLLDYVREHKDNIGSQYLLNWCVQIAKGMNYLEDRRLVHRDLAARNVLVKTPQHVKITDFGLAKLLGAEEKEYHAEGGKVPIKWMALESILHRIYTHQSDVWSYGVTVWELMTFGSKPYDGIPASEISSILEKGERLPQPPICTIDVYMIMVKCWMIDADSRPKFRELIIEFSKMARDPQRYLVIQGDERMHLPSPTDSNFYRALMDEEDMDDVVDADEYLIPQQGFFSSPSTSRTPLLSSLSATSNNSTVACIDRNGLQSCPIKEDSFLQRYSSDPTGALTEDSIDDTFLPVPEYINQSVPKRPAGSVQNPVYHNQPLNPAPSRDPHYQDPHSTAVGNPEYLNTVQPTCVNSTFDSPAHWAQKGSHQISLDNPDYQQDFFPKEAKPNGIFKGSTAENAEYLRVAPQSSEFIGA

As for `COc1cc(N2CCC(N3CCN(C)CC3)CC2)c(C)cc1Nc1ncc(Br)c(Nc2ccc3nccnc3c2N(C)S(=O)(=O)C(C)C)n1` [Compound I-134], the IC50 in experiment [1] is 50 to 500 nM; in experiment [2], not above 50 nM; in experiment [3], 50 to 500 nM; in experiment [4], not above 50 nM; in experiment [5], not above 50 nM; in experiment [6], not above 50 nM.
Turning to `CCc1cc(Nc2ncc(Br)c(Nc3ccc4nccnc4c3N(C)S(=O)(=O)C(C)C)n2)c(OC)cc1N1CCC(N2CCN(C)CC2)CC1` [Compound I-135], the IC50 in experiment [1] was 50 to 500 nM; in experiment [2] it was not above 50 nM; in experiment [3] it was 50 to 500 nM; in experiment [4], not above 50 nM; in experiment [5], not above 50 nM; in experiment [6], not above 50 nM.
For `CCc1cc(Nc2ncc(Br)c(Nc3ccc4nccnc4c3N(C)S(=O)(=O)C(C)C)n2)c(OC)cc1N1CCC(N(C)C)CC1` [Compound I-137], the IC50 in experiment [1] is not above 50 nM; in experiment [2] it was not above 50 nM; in experiment [3], 50 to 500 nM; in experiment [4] it was not above 50 nM; in experiment [5], not above 50 nM; in experiment [6], not above 50 nM.
As to `CCc1cc(Nc2ncc(Br)c(Nc3ccc4nccnc4c3N(C)S(=O)(=O)C(C)C)n2)c(OC)cc1N1CCC(N(C)C)C1` (stereo not drawn) [Compound I-138], the IC50 was 50 to 500 nM in experiment [1]; 50 to 500 nM in experiment [2]; 50 to 500 nM in experiment [3]; 50 to 500 nM in experiment [4]; not above 50 nM in experiment [5]; not above 50 nM in experiment [6].
Consider `CCc1cc(Nc2ncc(Cl)c(Nc3ccc4nccnc4c3N(C)S(=O)(=O)C(C)C)n2)c(OC)cc1N1CCC(N(C)C)CC1` [Compound I-142], for which the IC50 in experiment [1], in experiment [2], in experiment [3], in experiment [4], in experiment [5] and in experiment [6] was not above 50 nM throughout.
On to `CCc1cc(Nc2ncc(Cl)c(Nc3ccc4nccnc4c3N(C)S(=O)(=O)C(C)C)n2)c(OC)cc1N1CCC(N(C)C)C1` (stereo not drawn) [Compound I-143], for which the IC50 in experiment [1] is 50 to 500 nM; in experiment [2], 50 to 500 nM; in experiment [3] it was 50 to 500 nM; in experiment [4], not above 50 nM; in experiment [5] it was 50 to 500 nM; in experiment [6] it was not above 50 nM.
Take `COc1cc(N2CCC(N3CCN(C)CC3)CC2)c(C)cc1Nc1ncc(Br)c(Nc2ccc3nccnc3c2N(C2CC2)S(C)(=O)=O)n1` [Compound I-154]: the IC50 in experiment [1], in experiment [2], in experiment [3], in experiment [4], in experiment [5] and in experiment [6] was not above 50 nM in each case.
`CCc1cc(Nc2ncc(Br)c(Nc3ccc4nccnc4c3N(C3CC3)S(C)(=O)=O)n2)c(OC)cc1N1CCC(N2CCN(C)CC2)CC1` [Compound I-155]: the IC50 in experiment [1] is not above 50 nM; in experiment [2] it was not above 50 nM; in experiment [3], 50 to 500 nM; in experiment [4], not above 50 nM; in experiment [5], not above 50 nM; in experiment [6], not above 50 nM.
In the case of `CCc1cc(Nc2ncc(Br)c(Nc3ccc4nccnc4c3N(C3CC3)S(C)(=O)=O)n2)c(OC(F)(F)F)cc1N1CCC(N2CCN(C)CC2)CC1` [Compound I-156], the IC50 in experiment [1] was 50 to 500 nM; in experiment [2], 50 to 500 nM; in experiment [3] it was 50 to 500 nM; in experiment [4], not above 50 nM; in experiment [5], 50 to 500 nM; in experiment [6], not above 50 nM.
Consider `CCc1cc(Nc2ncc(Br)c(Nc3ccc4nccnc4c3N(C3CC3)S(C)(=O)=O)n2)c(OC)cc1N1CCC(N(C)C)CC1` [Compound I-157], for which the IC50 in experiment [1], in experiment [2], in experiment [3], in experiment [4], in experiment [5] and in experiment [6] was not above 50 nM throughout.
Take `CCc1cc(Nc2ncc(Br)c(Nc3ccc4nccnc4c3N(C3CC3)S(C)(=O)=O)n2)c(OC)cc1N1CCC(N(C)C)C1` (stereo not drawn) [Compound I-158]: the IC50 in experiment [1] was 50 to 500 nM; in experiment [2], not above 50 nM; in experiment [3] it was 50 to 500 nM; in experiment [4], not above 50 nM; in experiment [5] it was not above 50 nM; in experiment [6], not above 50 nM.
For `COc1cc(N2CCC(N3CCN(C)CC3)CC2)c(C)cc1Nc1ncc(Cl)c(Nc2ccc3nccnc3c2N(C2CC2)S(C)(=O)=O)n1` [Compound I-159], the IC50 in experiment [1], in experiment [2], in experiment [3], in experiment [4], in experiment [5] and in experiment [6] was not above 50 nM throughout.
Take `CCc1cc(Nc2ncc(Cl)c(Nc3ccc4nccnc4c3N(C3CC3)S(C)(=O)=O)n2)c(OC)cc1N1CCC(N2CCN(C)CC2)CC1` [Compound I-160]: the IC50 is 50 to 500 nM in experiment [1]; not above 50 nM in experiment [2]; not above 50 nM in experiment [3]; not above 50 nM in experiment [4]; not above 50 nM in experiment [5]; not above 50 nM in experiment [6].
For `CCc1cc(Nc2ncc(Cl)c(Nc3ccc4nccnc4c3N(C3CC3)S(C)(=O)=O)n2)c(OC(F)(F)F)cc1N1CCC(N2CCN(C)CC2)CC1` [Compound I-161], the IC50 in experiment [1], in experiment [2], in experiment [3], in experiment [4], in experiment [5] and in experiment [6] was 50 to 500 nM each time.
In the case of `CCc1cc(Nc2ncc(Cl)c(Nc3ccc4nccnc4c3N(C3CC3)S(C)(=O)=O)n2)c(OC)cc1N1CCC(N(C)C)CC1` [Compound I-162], the IC50 in experiment [1], in experiment [2], in experiment [3], in experiment [4], in experiment [5] and in experiment [6] was not above 50 nM each time.
`CCc1cc(Nc2ncc(Cl)c(Nc3ccc4nccnc4c3N(C3CC3)S(C)(=O)=O)n2)c(OC)cc1N1CCC(N(C)C)C1` (stereo not drawn) [Compound I-163]: the IC50 in experiment [1], in experiment [2], in experiment [3], in experiment [4], in experiment [5] and in experiment [6] was not above 50 nM each time.
As for `COc1nc(N2CCC(N3CCN(C)CC3)CC2)ccc1Nc1ncc(Cl)c(Nc2ccc3nccnc3c2N(C)S(C)(=O)=O)n1` [Compound I-164], the IC50 in experiment [1] fell in the range of 50 to 500 nM; in experiment [2], 50 to 500 nM; in experiment [3], 500 to 2500 nM; in experiment [4], 500 to 2500 nM; in experiment [5] it was 50 to 500 nM; in experiment [6] it was 50 to 500 nM.
As for `CN1CCN(C2CCN(c3ccc(Nc4ncc(Cl)c(Nc5ccc6nccnc6c5N(C)S(C)(=O)=O)n4)c(OC(F)(F)F)c3)CC2)CC1` [Compound I-166], the IC50 in experiment [1] is 50 to 500 nM; in experiment [2], 50 to 500 nM; in experiment [3], 50 to 500 nM; in experiment [4], 50 to 500 nM; in experiment [5], 50 to 500 nM; in experiment [6], not above 50 nM.
Regarding `COc1cc(N2CCC(N3CCN(C)CC3)CC2)c(CC2CC2)cc1Nc1ncc(Cl)c(Nc2ccc3nccnc3c2N(C)S(C)(=O)=O)n1` [Compound I-167], the IC50 in experiment [1] was not above 50 nM; in experiment [2], not above 50 nM; in experiment [3], 50 to 500 nM; in experiment [4], not above 50 nM; in experiment [5], not above 50 nM; in experiment [6], not above 50 nM.
Turning to `COc1cc(N2CCC(N3CCN(C)CC3)CC2)c(Cc2ccccc2)cc1Nc1ncc(Cl)c(Nc2ccc3nccnc3c2N(C)S(C)(=O)=O)n1` [Compound I-168], the IC50 is 500 to 2500 nM in experiment [1]; 500 to 2500 nM in experiment [2]; 500 to 2500 nM in experiment [3]; 50 to 500 nM in experiment [4]; 500 to 2500 nM in experiment [5]; 500 to 2500 nM in experiment [6].
As for `COc1cc(N2CCC(N(C)C)CC2)c(C)cc1Nc1ncc(Cl)c(Nc2ccc3nccnc3c2N(C)S(C)(=O)=O)n1` [Compound I-169], the IC50 in experiment [1], in experiment [2], in experiment [3], in experiment [4], in experiment [5] and in experiment [6] was not above 50 nM in each case.
For `CCc1cc(Nc2ncc(Cl)c(Nc3ccc4nccnc4c3N(C)S(C)(=O)=O)n2)c(OC)cc1N1CCC(N(C)C)CC1` [Compound I-170], the IC50 in experiment [1], in experiment [2], in experiment [3], in experiment [4], in experiment [5] and in experiment [6] was not above 50 nM in each case.
